The target of test [1] is T1, KRAS G12C and SOS1 proteins (Homo sapiens, UniProt Q07889).
T1 construct: purchased Cisbio 63ADK000CB16PEG
T1 sequence (Q07889 1-1333): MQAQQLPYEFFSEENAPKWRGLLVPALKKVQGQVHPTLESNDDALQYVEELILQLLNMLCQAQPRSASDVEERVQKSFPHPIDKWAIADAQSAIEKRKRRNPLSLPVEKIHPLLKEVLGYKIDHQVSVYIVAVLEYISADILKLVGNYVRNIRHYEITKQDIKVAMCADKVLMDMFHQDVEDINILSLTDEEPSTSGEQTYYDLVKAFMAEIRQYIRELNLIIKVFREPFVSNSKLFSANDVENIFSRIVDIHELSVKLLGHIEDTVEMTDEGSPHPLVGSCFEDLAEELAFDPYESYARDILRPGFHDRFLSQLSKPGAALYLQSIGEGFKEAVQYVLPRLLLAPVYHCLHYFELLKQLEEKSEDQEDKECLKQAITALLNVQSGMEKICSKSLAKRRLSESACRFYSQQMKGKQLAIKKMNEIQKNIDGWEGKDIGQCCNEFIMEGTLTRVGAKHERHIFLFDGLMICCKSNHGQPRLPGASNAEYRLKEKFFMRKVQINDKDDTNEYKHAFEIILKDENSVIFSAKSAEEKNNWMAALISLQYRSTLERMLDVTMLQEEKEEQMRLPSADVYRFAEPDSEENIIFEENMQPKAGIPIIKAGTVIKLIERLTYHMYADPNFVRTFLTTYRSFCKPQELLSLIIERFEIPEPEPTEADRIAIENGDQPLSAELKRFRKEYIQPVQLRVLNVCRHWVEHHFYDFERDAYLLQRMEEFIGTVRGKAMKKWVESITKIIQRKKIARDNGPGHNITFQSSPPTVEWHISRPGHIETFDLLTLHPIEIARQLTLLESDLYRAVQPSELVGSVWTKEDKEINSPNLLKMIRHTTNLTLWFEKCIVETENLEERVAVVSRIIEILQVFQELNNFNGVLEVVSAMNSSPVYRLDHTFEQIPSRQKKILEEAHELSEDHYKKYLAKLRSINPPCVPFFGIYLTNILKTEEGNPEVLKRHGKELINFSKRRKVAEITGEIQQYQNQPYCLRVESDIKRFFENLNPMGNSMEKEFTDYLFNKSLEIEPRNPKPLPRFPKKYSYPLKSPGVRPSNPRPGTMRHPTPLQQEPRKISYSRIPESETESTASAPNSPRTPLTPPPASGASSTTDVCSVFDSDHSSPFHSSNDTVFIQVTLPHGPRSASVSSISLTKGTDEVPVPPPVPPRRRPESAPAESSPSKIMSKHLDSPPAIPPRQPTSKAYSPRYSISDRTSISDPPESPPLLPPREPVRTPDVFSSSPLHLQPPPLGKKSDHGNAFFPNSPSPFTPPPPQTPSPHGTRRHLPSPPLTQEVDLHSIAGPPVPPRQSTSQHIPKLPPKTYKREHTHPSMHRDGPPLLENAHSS
Briefly: KRAS-G12C/SOS1 binding assay (HTRF). The following applies: Tag1-SOS1 / Tag2-KRAS G12C, 10 μM GTP. The procedure: KRAS-WT (or G12C/G12D/G12V)/SOS1 Binding Assay
Low IC50 values are indicative of high potency of the SOS1 inhibitor compounds in this assay setting.
The KRAS-WT (or G12C/G12D/G12V)/SOS1 binding assay is performed using an assay kit (Cisbio, Cat #63ADK000CB15PEG or 63ADK000CB16PEG/63ADK000CB17PEG/63ADK000CB18PEG) according to the procedure recommended by the manufacturer. • 1) Thaw and prepare the working solution of Tag1-SOS1 protein and Tag2-KRAS-WT (or G12C/G12D/G12V) protein with final concentration of 10 μM GTP (Sigma, Cat #V900868). • 2) Thaw and prepare the working solution of anti-Tag1-Tb^3+ anti-Tag2-XL665. • 3) Dispense 2 μL of serially diluted compound, 4 μL of Tag1-SOS1 protein and 4 μL of Tag2-KRAS-WT (or G12C/G12D/G12V) protein with GTP into a ProxiPlate-384 Plus, white 384-shallow well microplate (PerkinElmer, Cat #6008280). • 4) Incubate the plate for 15 minutes at room temperature. • 5) Dispense 10 μL of pre-mixed anti-Tag1-Tb^3+ and anti-Tag2-XL665 into the plate. • 6) Seal the plate and incubate for 2 hours at room temperature. • 7) Remove the plate sealer and read on PHERAstar FS (BMG LABTECH, PHERAstar FS). • 8) Calculate the ratio of the acceptor and donor emission signals for each individual well using the following equation.
[formula] • 9) IC50 values are fitted and calculated by HTRF signal values and log of compound concentrations to nonlinear regression [Log (inhibitor) vs. Response−Variable Slope (four parameters)] using the GraphPad Prism 8.0.

The target of test [2] is T2, KRAS-WT and SOS1 proteins (Homo sapiens, UniProt Q07889).
T2 construct: purchased Cisbio 63ADK000CB15PEG
T2 sequence (Q07889 1-1333): T1 sequence (Q07889 1-1333)
Briefly: KRAS-WT/SOS1 binding assay (HTRF). The settings on record: Tag1-SOS1 / Tag2-KRAS-WT, 10 μM GTP, read-out: Activity Data in Kras: SOS1 Assay, Wild Type.

Test [3] concerns the target T3, KRAS G12D and SOS1 proteins (Homo sapiens, UniProt Q07889).
T3 construct: purchased Cisbio 63ADK000CB17PEG
T3 sequence (Q07889 1-1333): T1 sequence (Q07889 1-1333)
Briefly: KRAS-G12D/SOS1 binding assay (HTRF). The following applies: Tag1-SOS1 / Tag2-KRAS G12D, 10 μM GTP.

Bounds are passed on as bounds.

In test [1], `Cc1nc(N[C@H](C)c2cccc(C(F)F)c2F)c2cc(-c3ccc(=O)n(C)c3)c3nncn3c2n1` [Example 4, (R)-5-(4-((1-(3-(difluoromethyl)-2-fluorophenyl)ethyl)amino)-2-methyl-[1,2,4]triazolo[4′,3′:1,6]pyrido[2,3-d]pyrimidin-6-yl)-1-methylpyridin-2(1H)-one] returned an IC50 below 100 nM. For `COc1cc2c(cc1C1CCOCC1)c(N[C@H](C)c1cccc(C(F)F)c1F)nc1ccnn12` [Example 47, (R)-N-(1-(3-(difluoromethyl)-2-fluorophenyl)ethyl)-8-methoxy-7-(tetrahydro-2H-pyran-4-yl)pyrazolo[1,5-a]quinazolin-5-amine], the IC50 is 100 to 500 nM in test [2], 500 to 5000 nM in test [1] and 500 to 5000 nM in test [3]. For the compound `C[C@@H](Nc1nc2ccnn2c2cc(=O)n(C3CCOCC3)cc12)c1cccc(C(F)(F)CO)c1` [Example 60, (R)-5-((1-(3-(1,1-difluoro-2-hydroxyethyl)phenyl)ethyl)amino)-7-(tetrahydro-2H-pyran-4-yl)pyrazolo[1,5-a]pyrido[3,4-e]pyrimidin-8(7H)-one], the IC50 in test [2], in test [1] and in test [3] was below 100 nM in each case.

Consider `COc1cc2c(cc1C1=CCOCC1)c(N[C@H](C)c1cccc3c1CCC3(F)F)nc1ccnn12` [Example 49, (R)-N-(1-(1,1-difluoro-2,3-dihydro-1H-inden-4-y1)ethyl)-7-(3,6-dihydro-2H-pyran-4-yl)-8-methoxypyrazolo[1,5-a]quinazolin-5-amine], for which, in test [1], the IC50 was 100 to 500 nM.

As for `Cc1nc(N[C@H](C)c2cccc3c2CCC3(F)F)c2cc(C3CCOCC3)c3nncn3c2n1` [Example 1, N-[(1R)-1-(1,1-difluoro-2,3-dihydro-1H-inden-4-yl)ethyl]-12-methyl-7-(oxan-4-yl)-2,4,5,11,13-pentaazatricyclo[7.4.0.0^{2,6}]trideca-1(9),3,5,7,10,12-hexaen-10-amine], the IC50 in test [1] and in test [3] was below 100 nM throughout.

Regarding `COc1cc2c(cc1-c1ccc(=O)n(C)c1)c(N[C@H](C)c1cccc(C(F)(F)CO)c1)nc1ccnn12` [Example 45, (R)-5-(5-((1-(3-(1,1-difluoro-2-hydroxyethyl)phenyl)ethyl)amino)-8-methoxypyrazolo[1,5-a]quinazolin-7-yl)-1-methylpyridin-2(1H)-one], the values for the IC50 in test [2], in test [1] and in test [3] were below 100 nM, 100 to 500 nM and below 100 nM, respectively. In test [1], `COc1cc2c(cc1-c1ccc(=O)n(C)c1)c(N[C@H](C)c1cccc(C(F)F)c1F)nc1ccnn12` [Example 48, (R)-5-(5-((1-(3-(difluoromethyl)-2-fluorophenyl)ethyl)amino)-8-methoxypyrazolo[1,5-a]quinazolin-7-yl)-1-methylpyridin-2(1H)-one] yielded an IC50 of 100 to 500 nM. As to `Cc1nc(N[C@H](C)c2cccc(C(F)(F)CO)c2)c2cc(-c3ccc(=O)n(C)c3)c3nncn3c2n1` [Example 6, (R)-5-(4-((1-(3-(1,1-difluoro-2-hydroxyethyl)phenyl)ethyl)amino)-2-methyl-[1,2,4]triazolo[4′,3′:1,6]pyrido[2,3-d]pyrimidin-6-yl)-1-methylpyridin-2(1H)-one], in test [1], the IC50 is below 100 nM.

As to `Cc1nc(N[C@H](C)c2cccc(C(F)F)c2F)c2cc(C3CCOCC3)c3nncn3c2n1` [Example 5, (R)-N-(1-(3-(difluoromethyl)-2-fluorophenyl)ethyl)-2-methyl-6-(tetrahydro-2H-pyran-4-yl)-[1,2,4]triazolo[4′,3′:1,6]pyrido[2,3-d]pyrimidin-4-amine], in test [1], the IC50 was below 100 nM. In test [1], `C[C@@H](Nc1nc2ccnn2c2cc(=O)n(C3CCOCC3)cc12)c1cccc(C(F)F)c1F` [Example 59, (R)-5-((1-(3-(difluoromethyl)-2-fluorophenyl)ethyl)amino)-7-(tetrahydro-2H-pyran-4-yl)pyrazolo[1,5-a]pyrido[3,4-e]pyrimidin-8(7H)-one] registered an IC50 below 100 nM. Same read-out and setting: the same measure for `Cc1nc(N[C@H](C)c2cccc3c2CCC3(F)F)c2cc(-c3ccc(=O)n(C)c3)c3nncn3c2n1` [Example 3, (R)-5-(4-((1-(1,1-difluoro-2,3-dihydro-1H-inden-4-yl)ethyl)amino)-2-methyl-[1,2,4]triazolo[4′,3′:1,6]pyrido[2,3-d]pyrimidin-6-yl)-1-methylpyridin-2(1H)-one]: 100 to 500 nM; for `COc1cc2c(cc1C1CCOCC1)c(N[C@H](C)c1cccc3c1CCC3(F)F)nc1ccnn12` [Example 50, (R)-N-(1-(1,1-difluoro-2,3-dihydro-1H-inden-4-yl)ethyl)-8-methoxy-7-(tetrahydro-2H-pyran-4-yl)pyrazolo[1,5-a]quinazolin-5-amine]: 100 to 500 nM. For `CNCc1ccccc1-c1ccc([C@@H](C)Nc2nc3ccnn3c3cc(=O)n(C4(C)CC4)cc23)s1` [Example 74, 8-{[(1R)-1-(5-{2-[(methylamino)methyl]phenyl}thiophen-2-yl)ethyl]amino}-11-(1-methylcyclopropyl)-2,3,7,11-tetraazatricyclo[7.4.0.0^{2,6}]trideca-1(13),3,5,7,9-pentaen-12-one], the IC50 in test [2] and in test [3] was below 100 nM each time. Turning to `Cc1nc(N[C@H](C)c2cccc(C(F)(F)CO)c2)c2cc(C3CCOCC3)c3nncn3c2n1` [Example 2, (R)-2,2-difluoro-2-(3-(1-((2-methyl-6-(tetrahydro-2H-pyran-4-yl)-[1,2,4]triazolo[4′,3′:1,6]pyrido[2,3-d]pyrimidin-4-yl)amino)ethyl)phenyl)ethanol], the IC50 in test [1] and in test [3] was below 100 nM each time. In the case of `C[C@@H](Nc1nc2ccnn2c2cc(=O)n(C3CCNCC3)cc12)c1cccc(C(F)(F)CO)c1` [Example 77, 8-{[(1R)-1-[3-(1,1-difluoro-2-hydroxyethyl)phenyl]ethyl]amino}-11-(piperidin-4-yl)-2,3,7,11-tetraazatricyclo[7.4.0.0^{2,6}]trideca-1(13),3,5,7,9-pentaen-12-one], the IC50 in test [2] and in test [3] was below 100 nM in each case. As for `Cc1nc(N[C@H](C)c2cccc(C(F)(F)CO)c2)c2cc(-c3ccc(=O)[nH]c3)c3[nH]ncc3c2n1` [Example 28, (R)-5-(4-((1-(3-(1,1-difluoro-2-hydroxyethyl)phenyl)ethyl)amino)-2-methyl-7H-pyrazolo[3,4-h]quinazolin-6-yl)pyridin-2(1H)-one], the IC50 in test [2] and in test [3] was below 100 nM throughout.

Values taken from patent US20240109891A1, “NOVEL SUBSTITUTED TRICYCLIC AZA-HETEROCYCLES AS SOS1 INHIBITORS” (Viva Star Biosciences (Suzhou) Co., Ltd., priority 2021, published 2024).
